ChEMBL document CHEMBL1201862, “PubChem BioAssay data set” (2004)
Active and inactive are the calls of the source.

What was measured:
[1] = molecular target: G-protein coupled receptor 55 (Homo sapiens, UniProt Q9Y2T6); assay: GPR55 antagonists blocking LPI-driven arrestin recruitment, primary screen, imaging, U2OS, beta-arrestin-GFP, LPI agonist (AID 2013); type: functional;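 also: antagonist potency measured as reduced agonist-driven arrestin aggregation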
[2] = molecular target: Heat shock protein HSP 90-alpha (Homo sapiens, UniProt P07900); type: functional, organism-based
[3] = molecular target: Glyceraldehyde-3-phosphate dehydrogenase (Homo sapiens, UniProt P04406)
[4] = molecular target: T1, Alkaline phosphatase, tissue-nonspecific isozyme (Homo sapiens, UniProt P05186); assay: human TNAP enzyme inhibitors, SAR follow-up, biochemical, luminescent, dose response (AID 1056)
T1 sequence (P05186 whole entry): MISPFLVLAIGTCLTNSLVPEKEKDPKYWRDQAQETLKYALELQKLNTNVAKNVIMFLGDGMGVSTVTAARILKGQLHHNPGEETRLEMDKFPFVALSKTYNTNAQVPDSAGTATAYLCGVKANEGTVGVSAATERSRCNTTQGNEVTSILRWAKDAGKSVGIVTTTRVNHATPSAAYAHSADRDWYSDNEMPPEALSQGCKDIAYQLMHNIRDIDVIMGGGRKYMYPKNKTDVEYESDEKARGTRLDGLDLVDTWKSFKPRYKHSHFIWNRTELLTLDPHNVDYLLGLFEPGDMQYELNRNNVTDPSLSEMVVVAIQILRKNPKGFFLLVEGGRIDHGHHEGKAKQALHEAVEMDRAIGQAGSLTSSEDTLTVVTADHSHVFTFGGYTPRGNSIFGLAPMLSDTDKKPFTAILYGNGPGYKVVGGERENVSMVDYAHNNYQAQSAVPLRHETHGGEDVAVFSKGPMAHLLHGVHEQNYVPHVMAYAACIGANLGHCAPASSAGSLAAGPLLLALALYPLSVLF

[5] = molecular target: T2, Short transient receptor potential channel 4 (Mus musculus, UniProt Q9QUQ5); assay: mouse TRPC4 channel activators, dose response, cell-based, HEK293 TRPC4/mu-opioid, Fluo-4 calcium (AID 434937); type: functional
T2 sequence (Q9QUQ5 whole entry): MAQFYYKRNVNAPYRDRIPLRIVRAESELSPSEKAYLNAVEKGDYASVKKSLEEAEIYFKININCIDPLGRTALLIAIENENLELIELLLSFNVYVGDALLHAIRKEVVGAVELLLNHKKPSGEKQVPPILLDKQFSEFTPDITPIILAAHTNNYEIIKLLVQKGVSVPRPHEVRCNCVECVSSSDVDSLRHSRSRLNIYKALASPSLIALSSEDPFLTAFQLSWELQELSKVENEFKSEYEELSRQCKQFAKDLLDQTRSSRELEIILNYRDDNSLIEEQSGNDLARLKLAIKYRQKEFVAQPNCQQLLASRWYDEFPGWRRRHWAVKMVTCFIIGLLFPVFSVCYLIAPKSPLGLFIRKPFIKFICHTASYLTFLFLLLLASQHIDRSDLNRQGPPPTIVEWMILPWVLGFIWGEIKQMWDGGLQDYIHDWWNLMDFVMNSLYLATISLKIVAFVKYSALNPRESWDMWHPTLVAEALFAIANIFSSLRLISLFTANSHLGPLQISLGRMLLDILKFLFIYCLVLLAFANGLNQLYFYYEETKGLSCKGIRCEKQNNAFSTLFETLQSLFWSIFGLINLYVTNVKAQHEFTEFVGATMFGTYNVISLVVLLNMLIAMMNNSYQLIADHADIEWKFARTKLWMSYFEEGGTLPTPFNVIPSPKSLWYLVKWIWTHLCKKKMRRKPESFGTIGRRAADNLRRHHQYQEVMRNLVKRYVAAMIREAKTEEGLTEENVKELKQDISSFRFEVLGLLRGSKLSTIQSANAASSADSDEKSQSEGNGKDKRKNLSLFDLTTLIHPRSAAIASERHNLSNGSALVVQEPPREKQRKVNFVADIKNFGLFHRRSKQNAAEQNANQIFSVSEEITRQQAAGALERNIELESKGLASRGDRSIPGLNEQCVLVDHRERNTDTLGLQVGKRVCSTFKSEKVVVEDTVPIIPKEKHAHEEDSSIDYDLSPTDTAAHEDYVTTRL

[6] = molecular target: T3, Kappa-type opioid receptor (Homo sapiens, UniProt P41145); type: functional
[7] = molecular target: T3, Kappa-type opioid receptor; type: functional; remark: listed apart in the source
[8] = molecular target: Mu-type opioid receptor (Homo sapiens, UniProt P35372); assay: HTS Image-Based Screen for Agonists of the MOR Receptor. [Related pubchem assays (depositor defined):AID1777, AID1785, AID1786, AID2133]; type: functional;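 also: imaging of beta-arrestin GFP recruitment into spots after receptor activation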
[9] = molecular target: T4, Delta-type opioid receptor (Homo sapiens, UniProt P41143); assay: HTS Image-Based Screen for Antagonists of the DOR Receptor. [Related pubchem assays (depositor defined):AID1777, AID1785, AID1786, AID2133]; type: functional
[10] = molecular target: Beta-galactosidase (Escherichia coli, UniProt Q8VNN2); type: functional
[11] = molecular target: T4, Delta-type opioid receptor; assay: HTS Image-Based Screen for Agonists of the DOR Receptor. [Related pubchem assays (depositor defined):AID1777, AID1786, AID2133]; type: functional
[12] = molecular target: Glucose-6-phosphate 1-dehydrogenase (Homo sapiens, UniProt P11413); assay: human G6PD enzyme inhibitors, dose response, selectivity assay for P. falciparum G6PD inhibitor project, biochemical, fluorescence (AID 504792); type: functional
[13] = molecular target: Cytochrome P450 2C19 (Homo sapiens, UniProt P33261); assay: Cytochrome panel assay with activity outcomes. Panel member name: p450-cyp2c19 Compounds with AC50 equal or less than 10 uM are considered active; type: functional; details: read-out: AC50
[14] = molecular target: T2, Short transient receptor potential channel 4; assay: mouse TRPC4 channel inhibitors, dose response, cell-based, HEK293 TRPC4/mu-opioid, Fluo-4 calcium (AID 434942); type: functional;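 also: potency of inhibitors blocking the TRPC4 calcium response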
[15] = molecular target: T5, SUMO-activating enzyme (Homo sapiens, UniProt Q9UBT2); assay: SUMOylation inhibitor hit validation, confirmation, SUMOylation inhibitor project, biochemical, AlphaScreen (AID 2018); type: functional
[16] = molecular target: T5, SUMO-activating enzyme; assay: inhibitors of in vitro SUMOylation cascade, primary screen, biochemical, HTRF, uHTS (AID 2006); type: protein-complex assay
[17] = A Cell Based Secondary Assay To Explore Cytotoxicity of Compounds that Sensitize Mycobacterium Tuberculosis to Beta-Lactam Antibiotics.; type: functional
[18] = molecular target: T6, Zinc finger protein mex-5 (Caenorhabditis elegans, UniProt Q9XUB2); assay: MEX-5/TCR-2 RNA interaction inhibitors, dose response, biochemical, C. elegans, fluorescence polarization (AID 1960)
T6 sequence (Q9XUB2 whole entry): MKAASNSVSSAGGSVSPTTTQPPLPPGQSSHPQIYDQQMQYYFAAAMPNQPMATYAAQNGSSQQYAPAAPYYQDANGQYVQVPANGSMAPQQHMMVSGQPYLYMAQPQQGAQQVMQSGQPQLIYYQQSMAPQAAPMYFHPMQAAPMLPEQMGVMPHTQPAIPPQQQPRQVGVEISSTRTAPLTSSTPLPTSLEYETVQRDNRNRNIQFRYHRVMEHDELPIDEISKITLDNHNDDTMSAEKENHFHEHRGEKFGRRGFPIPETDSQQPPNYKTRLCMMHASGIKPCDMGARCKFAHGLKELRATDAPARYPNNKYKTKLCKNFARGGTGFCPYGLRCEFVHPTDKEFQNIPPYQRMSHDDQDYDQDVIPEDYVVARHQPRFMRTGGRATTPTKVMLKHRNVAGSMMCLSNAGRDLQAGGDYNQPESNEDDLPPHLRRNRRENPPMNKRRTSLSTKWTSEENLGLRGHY

[19] = Luminescence Cell-Based Dose Confirmation HTS to Identify Inhibitors of Platelet Dense Granule Release. [Related pubchem assays: 1663 (Primary HTS), 1678 (Summary of Project)]; type: functional
[20] = molecular target: Luciferin 4-monooxygenase (Photinus pyralis, UniProt P08659); assay: firefly luciferase enzyme inhibitors, dose response, biochemical, luminescence (AID 1891)
[21] = HepG2 cell cytotoxicity, dose response, cytotoxicity control for Shn3 inhibitor project, CellTiter-Glo, cherry-picked (AID 624134); type: functional, cell-based
[22] = Shn3 3'UTR reporter inhibitors, dose response, cell-based, Clone20 osteoblasts, firefly luciferase, cherry-picked (AID 624132); type: functional;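 also: firefly luciferase luminescence from reporter carrying the Shn3 3'UTR in osteoblasts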
[23] = molecular target: T7, RNA-binding protein pos-1 (Caenorhabditis elegans, UniProt G5EF15); assay: inhibitors of POS-1/mex-3 RNA binding, dose response, biochemical, fluorescence polarization (AID 1964);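 also: purified POS-1 fused to maltose binding protein made in E. coli; potency of compounds blocking POS-1 binding to fluorescent RNA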
T7 sequence (G5EF15 whole entry): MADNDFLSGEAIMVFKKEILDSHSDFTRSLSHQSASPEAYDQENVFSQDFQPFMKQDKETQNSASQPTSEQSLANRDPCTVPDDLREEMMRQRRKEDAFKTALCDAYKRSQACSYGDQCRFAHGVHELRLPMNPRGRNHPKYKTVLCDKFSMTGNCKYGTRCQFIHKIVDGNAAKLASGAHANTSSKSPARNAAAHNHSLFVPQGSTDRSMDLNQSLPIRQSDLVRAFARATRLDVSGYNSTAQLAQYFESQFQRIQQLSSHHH

[24] = cytotoxicity toward NIH3T3 fibroblasts, dose response, counter-screen, cell-based, ATP luminescence, mouse fibroblasts (AID 2010); type: functional;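 also: cells exposed to compound for about 90 hours before reading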
[25] = inhibitors of intracellular T. cruzi replication, confirmation, NIH3T3 host cells, beta-gal luminescence (AID 2044); type: functional, cell-based;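 also: intracellular parasites grown in NIH/3T3 mouse fibroblasts as host cells; luminescent beta-galactosidase reporter signal from transgenic T. cruzi replicating inside host cells; inhibitors lower the luminescence signal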
[26] = molecular target: T8, CAAX prenyl protease 2 (Saccharomyces cerevisiae S288c, UniProt Q03530); type: biochemical
T8 sequence (Q03530 whole entry): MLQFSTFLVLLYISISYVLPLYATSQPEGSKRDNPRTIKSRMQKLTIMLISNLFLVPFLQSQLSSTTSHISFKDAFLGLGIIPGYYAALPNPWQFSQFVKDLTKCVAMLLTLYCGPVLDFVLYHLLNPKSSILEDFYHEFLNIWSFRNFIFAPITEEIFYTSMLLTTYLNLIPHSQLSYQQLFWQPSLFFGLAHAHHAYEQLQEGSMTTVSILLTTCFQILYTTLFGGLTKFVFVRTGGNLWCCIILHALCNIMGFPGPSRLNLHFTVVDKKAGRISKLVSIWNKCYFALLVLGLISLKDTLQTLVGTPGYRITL

T4 sequence (P41143 whole entry): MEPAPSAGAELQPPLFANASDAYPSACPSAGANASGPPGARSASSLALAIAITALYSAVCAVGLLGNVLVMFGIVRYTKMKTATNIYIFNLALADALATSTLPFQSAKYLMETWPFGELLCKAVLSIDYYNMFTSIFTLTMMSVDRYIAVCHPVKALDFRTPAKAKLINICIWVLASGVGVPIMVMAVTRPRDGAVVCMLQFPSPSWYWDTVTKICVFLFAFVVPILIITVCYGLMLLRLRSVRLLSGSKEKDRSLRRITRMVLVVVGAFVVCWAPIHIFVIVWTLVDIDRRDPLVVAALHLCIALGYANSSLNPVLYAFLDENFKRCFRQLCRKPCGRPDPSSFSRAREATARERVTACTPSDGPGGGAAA
Sequence of G-protein coupled receptor 55 (Q9Y2T6 whole entry): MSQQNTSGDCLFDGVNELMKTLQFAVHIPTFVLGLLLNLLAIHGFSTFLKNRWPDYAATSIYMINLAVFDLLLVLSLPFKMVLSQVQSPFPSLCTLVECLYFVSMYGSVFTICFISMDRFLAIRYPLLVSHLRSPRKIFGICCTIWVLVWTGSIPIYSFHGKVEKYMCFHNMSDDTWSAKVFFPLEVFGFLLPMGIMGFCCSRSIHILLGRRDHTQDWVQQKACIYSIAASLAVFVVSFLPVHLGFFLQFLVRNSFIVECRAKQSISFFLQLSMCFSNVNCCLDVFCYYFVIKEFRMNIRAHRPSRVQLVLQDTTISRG
T3 sequence (P41145 whole entry): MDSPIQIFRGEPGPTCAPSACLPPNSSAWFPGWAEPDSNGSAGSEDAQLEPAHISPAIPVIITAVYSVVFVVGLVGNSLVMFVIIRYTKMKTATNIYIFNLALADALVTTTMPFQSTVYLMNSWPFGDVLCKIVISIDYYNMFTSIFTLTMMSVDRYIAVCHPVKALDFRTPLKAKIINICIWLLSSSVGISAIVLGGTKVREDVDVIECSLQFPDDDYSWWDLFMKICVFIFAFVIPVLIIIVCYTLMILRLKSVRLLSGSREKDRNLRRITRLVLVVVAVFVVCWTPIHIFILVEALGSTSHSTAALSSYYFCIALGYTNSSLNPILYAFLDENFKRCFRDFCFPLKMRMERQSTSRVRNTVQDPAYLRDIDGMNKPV
T5 sequence (Q9UBE0 whole entry): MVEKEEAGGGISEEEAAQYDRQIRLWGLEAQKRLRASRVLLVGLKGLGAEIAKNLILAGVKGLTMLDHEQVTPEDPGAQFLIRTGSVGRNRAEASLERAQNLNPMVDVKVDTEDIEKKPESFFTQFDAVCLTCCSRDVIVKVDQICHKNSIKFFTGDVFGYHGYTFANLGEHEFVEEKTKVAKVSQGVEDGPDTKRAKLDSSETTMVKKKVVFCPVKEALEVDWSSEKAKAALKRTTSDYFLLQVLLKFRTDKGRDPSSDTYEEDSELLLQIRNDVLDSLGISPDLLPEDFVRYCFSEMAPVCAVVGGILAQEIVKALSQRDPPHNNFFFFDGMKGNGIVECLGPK
T5 sequence (Q9UBT2 whole entry): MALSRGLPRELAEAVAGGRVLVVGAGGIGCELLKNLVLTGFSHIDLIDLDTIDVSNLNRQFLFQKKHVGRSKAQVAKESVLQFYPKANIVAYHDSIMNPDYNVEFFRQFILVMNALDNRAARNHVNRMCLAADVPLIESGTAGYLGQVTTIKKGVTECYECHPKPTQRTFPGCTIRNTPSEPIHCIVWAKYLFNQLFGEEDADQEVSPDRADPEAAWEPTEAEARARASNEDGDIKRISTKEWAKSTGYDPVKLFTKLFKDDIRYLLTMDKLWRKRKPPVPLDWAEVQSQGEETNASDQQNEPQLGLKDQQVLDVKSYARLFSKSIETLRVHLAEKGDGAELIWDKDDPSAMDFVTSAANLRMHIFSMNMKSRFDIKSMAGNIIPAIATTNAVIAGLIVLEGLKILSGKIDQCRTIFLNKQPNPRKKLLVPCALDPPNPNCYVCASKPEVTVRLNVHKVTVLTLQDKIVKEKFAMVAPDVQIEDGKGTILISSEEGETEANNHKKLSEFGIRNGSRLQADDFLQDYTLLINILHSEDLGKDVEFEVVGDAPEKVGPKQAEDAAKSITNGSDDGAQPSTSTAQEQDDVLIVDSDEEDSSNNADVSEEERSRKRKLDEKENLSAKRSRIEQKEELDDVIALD
Sequence of Beta-galactosidase (Q8VNN2 whole entry): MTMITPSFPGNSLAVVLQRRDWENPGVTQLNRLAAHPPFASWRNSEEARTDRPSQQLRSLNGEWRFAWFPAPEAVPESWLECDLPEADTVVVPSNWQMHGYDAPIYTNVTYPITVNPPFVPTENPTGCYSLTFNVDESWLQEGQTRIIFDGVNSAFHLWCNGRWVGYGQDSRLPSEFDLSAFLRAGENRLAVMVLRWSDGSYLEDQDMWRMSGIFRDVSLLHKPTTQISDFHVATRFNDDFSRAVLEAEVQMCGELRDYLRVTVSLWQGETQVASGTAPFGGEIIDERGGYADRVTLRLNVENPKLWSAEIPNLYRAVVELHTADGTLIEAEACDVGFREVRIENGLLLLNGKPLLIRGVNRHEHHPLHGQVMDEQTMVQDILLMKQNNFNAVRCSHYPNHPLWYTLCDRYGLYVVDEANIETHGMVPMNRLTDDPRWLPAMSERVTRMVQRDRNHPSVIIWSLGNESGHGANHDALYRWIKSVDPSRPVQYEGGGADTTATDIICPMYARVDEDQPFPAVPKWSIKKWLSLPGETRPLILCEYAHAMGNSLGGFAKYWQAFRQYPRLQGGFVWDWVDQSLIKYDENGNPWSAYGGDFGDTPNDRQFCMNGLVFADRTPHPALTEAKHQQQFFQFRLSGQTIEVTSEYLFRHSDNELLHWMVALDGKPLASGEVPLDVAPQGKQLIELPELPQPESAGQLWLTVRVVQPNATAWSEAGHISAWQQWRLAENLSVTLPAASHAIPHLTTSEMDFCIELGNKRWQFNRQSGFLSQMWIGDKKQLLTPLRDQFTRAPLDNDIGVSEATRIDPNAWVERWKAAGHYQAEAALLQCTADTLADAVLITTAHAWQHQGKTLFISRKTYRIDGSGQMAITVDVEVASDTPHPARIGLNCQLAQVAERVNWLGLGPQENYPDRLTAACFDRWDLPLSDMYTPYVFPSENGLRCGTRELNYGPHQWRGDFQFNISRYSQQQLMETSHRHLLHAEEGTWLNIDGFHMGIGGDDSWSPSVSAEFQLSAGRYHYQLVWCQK
Sequence of Mu-type opioid receptor (P35372 whole entry): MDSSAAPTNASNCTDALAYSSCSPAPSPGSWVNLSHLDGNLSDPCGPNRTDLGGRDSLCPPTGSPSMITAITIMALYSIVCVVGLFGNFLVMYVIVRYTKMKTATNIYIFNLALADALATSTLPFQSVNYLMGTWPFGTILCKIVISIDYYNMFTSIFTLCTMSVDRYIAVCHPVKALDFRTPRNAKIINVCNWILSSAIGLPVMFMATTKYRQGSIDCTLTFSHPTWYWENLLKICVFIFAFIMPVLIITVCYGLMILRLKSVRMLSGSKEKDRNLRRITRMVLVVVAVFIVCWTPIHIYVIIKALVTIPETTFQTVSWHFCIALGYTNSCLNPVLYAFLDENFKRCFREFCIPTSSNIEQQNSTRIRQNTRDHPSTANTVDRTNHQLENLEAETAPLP
Sequence of Glyceraldehyde-3-phosphate dehydrogenase (P04406 whole entry): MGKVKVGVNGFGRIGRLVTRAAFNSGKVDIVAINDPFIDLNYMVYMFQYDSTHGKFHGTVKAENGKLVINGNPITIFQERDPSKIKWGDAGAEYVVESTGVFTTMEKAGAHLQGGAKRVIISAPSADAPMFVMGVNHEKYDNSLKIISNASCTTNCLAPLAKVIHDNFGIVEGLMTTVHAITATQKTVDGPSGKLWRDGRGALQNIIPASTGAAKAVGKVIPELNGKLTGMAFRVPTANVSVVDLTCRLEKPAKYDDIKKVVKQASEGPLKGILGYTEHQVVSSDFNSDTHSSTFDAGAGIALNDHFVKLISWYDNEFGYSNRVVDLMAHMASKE
Sequence of Luciferin 4-monooxygenase (P08659 whole entry): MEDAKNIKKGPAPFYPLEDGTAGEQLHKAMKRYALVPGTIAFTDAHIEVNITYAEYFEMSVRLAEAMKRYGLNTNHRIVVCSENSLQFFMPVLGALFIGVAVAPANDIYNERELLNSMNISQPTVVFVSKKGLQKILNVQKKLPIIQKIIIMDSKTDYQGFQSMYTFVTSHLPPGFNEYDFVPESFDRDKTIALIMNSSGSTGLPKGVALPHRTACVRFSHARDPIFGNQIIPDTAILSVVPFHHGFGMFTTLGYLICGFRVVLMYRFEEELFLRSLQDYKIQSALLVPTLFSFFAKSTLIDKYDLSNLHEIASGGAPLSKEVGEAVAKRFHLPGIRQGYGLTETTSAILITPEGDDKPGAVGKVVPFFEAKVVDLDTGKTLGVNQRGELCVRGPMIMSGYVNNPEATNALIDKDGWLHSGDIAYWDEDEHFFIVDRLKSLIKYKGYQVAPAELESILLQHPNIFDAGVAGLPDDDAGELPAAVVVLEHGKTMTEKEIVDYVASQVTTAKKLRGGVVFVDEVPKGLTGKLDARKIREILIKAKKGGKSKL
Sequence of Glucose-6-phosphate 1-dehydrogenase (P11413 whole entry): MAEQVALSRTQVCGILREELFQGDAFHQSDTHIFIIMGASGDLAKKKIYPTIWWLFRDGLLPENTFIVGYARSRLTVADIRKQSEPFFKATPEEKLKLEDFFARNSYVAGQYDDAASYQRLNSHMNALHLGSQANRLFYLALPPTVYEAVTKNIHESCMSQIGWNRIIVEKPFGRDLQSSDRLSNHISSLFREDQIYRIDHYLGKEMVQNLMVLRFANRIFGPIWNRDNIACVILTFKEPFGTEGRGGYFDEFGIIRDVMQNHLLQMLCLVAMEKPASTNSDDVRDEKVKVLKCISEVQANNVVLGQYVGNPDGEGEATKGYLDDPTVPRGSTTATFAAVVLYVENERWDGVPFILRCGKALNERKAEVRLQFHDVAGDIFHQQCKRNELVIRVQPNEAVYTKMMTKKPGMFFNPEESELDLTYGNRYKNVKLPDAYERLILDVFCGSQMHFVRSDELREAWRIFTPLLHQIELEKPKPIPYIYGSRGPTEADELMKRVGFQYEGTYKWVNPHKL

In the case of `CC(C)(C)n1nnnc1C(c1cccs1)N(Cc1ccccc1)Cc1cccnc1` (stereo unspecified), the IC50 [1] is reported as 7.73 µM (active).
With `Cn1c(CNc2ccc(Cl)cc2)nnc1SCc1ccccc1` the AC50 [2] was 4.08 µM (active).
In the case of `O=C1c2ccccc2C(=O)N1c1nnc[nH]1`, the IC50 [3] is reported as > 100 µM (not active) and the IC50 [4] is reported as > 100 µM (inactive).
For `CCN1CCN(c2ncnc3sc(C)c(-c4ccccc4)c23)CC1`, the EC50 [5] was 5.96 µM (active).
With `CC(C)(C)C(=O)COC(=O)c1cc(-c2ccc(Br)cc2)n[nH]1` the IC50 [3] was > 100 µM (not active) and the IC50 [4] was > 100 µM (inactive).
For `CCCCN(CCCNC(=O)C1CCN(S(=O)(=O)N2CCOCC2)CC1)c1ccccc1`, the IC50 [6] was 4.56 µM, the IC50 [7] was 25.3 µM (inactive) and the EC50 [8] was > 32 µM (inactive). For the same molecule, the IC50 [9] was > 32 µM (inactive), the EC50 [10] was > 31.5 µM (inactive) and the EC50 [11] was > 32 µM (inactive).
In the case of `CC(C)c1nnc(NC(=O)c2sc3ccccc3c2Cl)s1`, the IC50 [12] is reported as 67.9 µM (inactive) and the AC50 [13] is reported as 22.4 µM (inconclusive).
In the case of `COCCNc1c2c(nc3ccccc13)CCC2`, the EC50 [14] is reported as 5.96 µM (active).
In the case of `Cc1ccc(S(=O)(=O)N2CCN(c3nc(C)c4c(c3C#N)CC(C)(C)OC4)CC2)cc1`, the IC50 [1] is reported as 10.9 µM (inactive).
In the case of `CC1CCN(CCOCCOc2ccccc2-c2ccccc2)CC1`, the EC50 [14] is reported as 2.99 µM (active).
For `Cc1ccc(NC(=O)COc2ccc(/C=C3/NC(=O)NC3=O)cc2)cc1`, the IC50 [15] was 19.2 µM (active) and the IC50 [16] was 17.1 µM (active).
With `CCC1=NN2C(=N)/C(=C\c3cccn3-c3ccc(C)cc3C)C(=O)N=C2S1` the AC50 [2] was 8.16 µM (active).
With `COc1ccc(C(CNC(=O)c2cccc3cccnc23)N(C)C)cc1` (stereo unspecified) the EC50 [5] was 1.19 µM (active) and the EC50 [14] was 0.531 µM (active).
For `CN(C)c1ccc(/C=C/c2nc3ccccc3s2)cc1`, the CC50 [17] was 25.3 µM (active), the EC50 [18] was > 300 µM (not active) and the EC50 [19] was 4.65 µM (active). The EC50 [20] was 1.43 µM (active), the AC50 [21] was 25.6 µM (active) and the AC50 [22] was 0.494 µM (active). The EC50 [23] was > 300 µM (not active).
In the case of `Cc1cc(OCC(=O)Nc2ccc(S(=O)(=O)N3CCN(C)CC3)cc2)cc(C)c1Cl`, the IC50 [6] is reported as over 32 µM, the IC50 [7] is reported as 7.36 µM (active) and the EC50 [8] is reported as > 32 µM (inactive). The IC50 [9] was > 32 µM (inactive), the EC50 [10] was > 31.5 µM (inactive) and the EC50 [11] was > 32 µM (inactive).
With `Fc1ccccc1CNCCC(Cc1ccccc1)c1ccc2c(c1)OCO2` (stereo unspecified) the EC50 [14] was 13.3 µM (active).
With `O=C(CC12CC3CC(CC(C3)C1)C2)NC(=S)NCc1ccco1` the IC50 [1] was 0.969 µM (active), the EC50 [24] was > 60 µM (inconclusive) and the EC50 [25] was 2.29 µM (active).
In the case of `CS(=O)(=O)c1ccc(C(=O)OCC(=O)N(CCc2ccccc2)Cc2ccccc2)cc1`, the AC50 [26] is reported as 7.85 µM (active).
